# Measurements published in patent publication US9486440B2, “Uses of indole-ketones or indolidones as neuro-protective drugs” (UNIVERSITY OF MACAU, priority 2011, dated 2016).
# pKi: −log10 of the molar value. “Also recorded” adds a separate entry of the source.
# How the values were obtained:
# [1] = system: intersegmental-vessel (ISV) formation; test: Intersegmental-vessel formation in Tg(fli-1:EGFP) zebrafish; type: in vivo; details: 1 dpf embryos treated 48 hours; SU4312 3-30 μM, PTK787/ZK222584 0.3-3 μM, VRI 0.1-0.3 μM, SU5416 0.3-1 μM
# Procedure: (§1) Wild-type zebrafish (AB strain) and Tg (fli-1:EGFP) transgenic zebrafish were maintained as described in the Zebrafish Handbook (Westerfield, 1993). Zebrafish embryos were generated by natural pair-wise mating (3-12 months old) and raised at 28.5° C. in embryo medium (13.7 mM NaCl, 540 μM KCl, pH 7.4, 25 μM Na2HPO4, 44 μM KH2PO4, 300 μM CaCl2, 100 μM MgSO4, 420 μM NaHCO3, pH 7.4). […] An equal concentration of DMSO in embryo medium was used as vehicle control in each experiment.
# (§2) After drug treatment, zebrafish were removed from microplate and observed for gross morphological changes of blood vessel under a fluorescence microscope (Olympus am Motorized Inverted Microscope, Japan) equipped with a digital camera (DP controller, Soft Imaging System, Olympus). Images were analyzed with Axiovision 4.2 and Adobe Photoshop 7.0.
# (§3) Wild-type zebrafish (AB strain) and Tg(fli-1:EGFP) transgenic zebrafish were maintained as described in the Zebrafish Handbook (Westerfield, 1993). Zebrafish embryos were generated by natural pair-wise mating (3-12 months old) and were raised at 28.5° C. in embryo medium (13.7 mM NaCl, 540 μM KCl, pH 7.4, 25 μM Na2HPO4, 44 μM KH2PO4, 300 μM CaCl2, 100 μM MgSO4, 420 μM NaHCO3, pH 7.4). […] Equal concentration of DMSO in embryo medium was used as vehicle control in each experiment.
# as §2, with “from the” for “from”
# nNOS = nNOS (Homo sapiens, UniProt P29475); test: In vitro NOS activity assay, nNOS; type: biochemical; parameters: purchased Alexis Biochemicals (Lausen, Switzerland); details: for inhibition of recombinant human nNOS: PTK787/ZK222584 up to 1 mM
# Procedure: In the in vitro NOS activity assay (Li et al., 2007), purified recombinant human nNOS, endothelial NOS (eNOS), and inducible NOS (iNOS) were bought from Alexis Biochemicals (Lausen, Switzerland). NOS activity was determined by monitoring the conversion of L-[3H]arginine to [3H]citrulline following the instructions provided in the kit (Calbiochem, USA). The reaction mixture contained a final volume of 40 μl with 25 mM Tris-Cl at pH 7.4, 3 μM tetrahydrobiopterin, 1 μM FAD, 1 μM FMN, 1 mM NADPH, 0.6 mM CaCl2, 0.1 μM calmodulin, 2.5 μg of pure NOS enzyme, 5 μl L-[3H]arginine (Perkin Elmer, Waltham, Mass., USA), and different concentrations of the tested reagents. The reaction mixture was incubated at 22° C. for 45 min. The reaction was quenched by adding 400 μl of stopping buffer (50 mM HEPES, pH 5.5, and 5 mM EDTA) for nNOS and eNOS reactions or by heating reactive tubes for iNOS. Unreacted L-[3H]arginine was then trapped by 100 μl of equilibrated resin provided in a spin cup followed by centrifugation for 30 s at 13,200 rpm. The filtrate was quantified by liquid scintillation counting.
# zebrafish = test: Toxicity to zebrafish; type: in vivo; details: SU5416 10 μM, VRI 3 μM, SU4312 up to 30 μM
# Procedure: as §1, §3
# CGNs = test: Hoechst 33342 staining of CGNs after MPP+; type: cell-based, rat; details: 20 μM, 35 μM MPP+
# Procedure: Chromatin condensation was detected by nucleus staining with Hoechst 33342 as described by Li et al., 2005. CGNs (2.7×10^6 cells) grown in a 35-mm dish were washed with ice-cold phosphate-buffered saline (PBS) and fixed with 4% formaldehyde in PBS. The cells were then stained with Hoechst 33342 (5 μg/ml) for 5 min at 4° C. The nuclei were visualized using a fluorescence microscope at ×400 magnification.
# Chromatin condensation was detected by staining the cell nucleus with Hoechst 33342 as described by Li et al., 2005. CGNs (2.7×10^6 cells) grown in a 35-mm dish were washed with ice-cold phosphate-buffered saline (PBS), fixed with 4% formaldehyde in PBS, membrane-permeabilized in 0.1% Triton X-100 and blocked in 1% BSA. Cells were then exposed to a primary nNOS antibody (Santa Cruz) overnight at 4° C. followed by incubation at room temperature with an Alexa Fluor 488-conjugated secondary antibody. After immunostaining, cells were then stained with Hoechst 33342 (5 μg/ml) at 4° C. for 5 min. Images were acquired using a fluorescence microscope at ×100 magnification.
# To quantify the percentage of apoptotic nuclei in each group, photos of each dish (n=3 dishes in each group for three independent experiments) were taken at five random fields and the numbers of apoptotic nuclei and total nuclei (n=300) were counted, and the percentage of apoptotic nuclei was averaged.
# intracellular NO = test: Intracellular NO in CGNs after MPP+ (DAF-FM diacetate); type: cell-based, rat; details: 35 μM MPP+
# Procedure: (§4) Intracellular NO was monitored with 4-Amino-5-methylamino-2′,7′-difluorofluorescein (DAF-FM) diacetate, a pH-insensitive fluorescent dye that emits increased fluorescence after reaction with an active intermediate of NO formed during the spontaneous oxidation of NO to NO2 (Sheng et al., 2005). DAF-FM solution was added to the culture medium (final concentration: 5 μM). After 30 min in a CO2 incubator, cultures were washed twice with PBS and incubated for an additional 30 min to allow complete de-esterification of the intracellular diacetate for stronger fluorescence. The DAF-FM fluorescence in CGNs was quantified by a multi-detection microplate reader using excitation and emission wavelengths of 495 nm and 515 nm, respectively. The measured fluorescence values were expressed as a percentage of the fluorescence in the control cells.
# as §4, with “(4-amino-5-methylamino-2′,7′-difluorofluorescein) DAF-FM” for “4-Amino-5-methylamino-2′,7′-difluorofluorescein (DAF-FM)”, “After incubation for” for “After”, “another” for “an additional”, “strong” for “stronger”
Compound,inhibition of intersegmental-vessel (ISV) formation [1],inhibition of recombinant human nNOS (nNOS),toxicity to zebrafish (zebrafish),nuclear condensation / apoptotic nuclei (Hoechst 33342) (CGNs),MPP+-stimulated NO production (intracellular NO; measured at 8 hour),"pKi (nNOS; 10 and 20 μM SU4312, 5 to 40 μM L-[3H]arginine, Lineweaver-Burk, read-out: Ki value of nNOS inhibition)",mode of nNOS inhibition (nNOS; Lineweaver-Burk plots),"MPP+-induced elevation of intracellular NO level (intracellular NO; pre-treatment 2 hours, 24 hours, SU4312 3-30 μM, 7-NI 3-10 μM)"
Clc1ccc(Nc2nnc(Cc3ccncc3)c3ccccc23)cc1 [PTK787/ZK222584],showed differential concentration-dependent inhibition of ISV formation; also recorded: at 1 μM inhibited angiogenesis with the potency similar to that of SU4312 at 30 μM,did not inhibit any of the isoforms even at 1 mM,–,–,–,–,–,–
"Cc1cc(C)c(/C=C2\C(=O)Nc3ccccc32)[nH]1 [SU5416, (3Z)-3-[(3,5-dimethyl-1H-pyrrol-2-yl)methylidene]-1,3-dihydro-2H-indol-2-one]",did not show this activity,–,showed toxicity to zebrafish,significantly reversed neuronal apoptosis induced by MPP^+,antagonized the stimulatory effect of MPP^+ on the NO production with an efficacy similar to 7-nitroindazole (15 μM),–,–,–
"CN(C)c1ccc(C=C2C(=O)Nc3ccccc32)cc1 [SU4312, 3-[4-(dimethylamino)benzylidenyl]indolin-2-one]",showed differential concentration-dependent inhibition of ISV formation,directly and selectively inhibit recombinant human nNOS relative to iNOS,did not induce any neurotoxicity,significantly reversed nuclear condensation induced by MPP^+,–,4.90,inhibited nNOS in a non-competitive manner; also recorded: did not alter Km but increased the appeared 1/Vmax,attenuated MPP^+-triggered elevation of intracellular NO level
